Literature values, collected in article PMC3575012 (Scientific Reports, 2013).

What was measured:
[1] = tested on: Alzheimer's disease; settings: cohort of patients suffering “mild” AD; ref not given
[2] = tested on: amyloid precursor protein; settings: stated as known, explained by buried free N-terminus of Aβ; ref not given
[3] = tested on: plaque deposited Aβ

Solanezumab
cognitive improvement [1]: small but significant cognitive improvement

Bapineuzumab
cross reactivity with the amyloid precursor protein [2]: lack of cross reactivity | binding preference [3]: Preferential binding
